In ChEMBL document CHEMBL5715954, “Silencing c-Myc translation as a therapeutic strategy through targeting PI3Kδ and CK1ε in hematological malignancies” (Blood, 2017):

Experiments:
Design in all cases: scale not given: the % may be the effect or the level left
[1] = target: Serine/threonine-protein kinase PLK3 (Homo sapiens) (UniProt Q9H4B4); test: Inhibition of human PLK3 assessed as enzyme activity at 1 uM using casein as substrate preincubated for 20 mins followed by [gamma-33P]-ATP addition and measured after 120 mins by radiometric Hot-SpotSM Kinase assay relative to control
Sequence of Serine/threonine-protein kinase PLK3 (Homo sapiens) (Q9H4B4 whole entry, looked up): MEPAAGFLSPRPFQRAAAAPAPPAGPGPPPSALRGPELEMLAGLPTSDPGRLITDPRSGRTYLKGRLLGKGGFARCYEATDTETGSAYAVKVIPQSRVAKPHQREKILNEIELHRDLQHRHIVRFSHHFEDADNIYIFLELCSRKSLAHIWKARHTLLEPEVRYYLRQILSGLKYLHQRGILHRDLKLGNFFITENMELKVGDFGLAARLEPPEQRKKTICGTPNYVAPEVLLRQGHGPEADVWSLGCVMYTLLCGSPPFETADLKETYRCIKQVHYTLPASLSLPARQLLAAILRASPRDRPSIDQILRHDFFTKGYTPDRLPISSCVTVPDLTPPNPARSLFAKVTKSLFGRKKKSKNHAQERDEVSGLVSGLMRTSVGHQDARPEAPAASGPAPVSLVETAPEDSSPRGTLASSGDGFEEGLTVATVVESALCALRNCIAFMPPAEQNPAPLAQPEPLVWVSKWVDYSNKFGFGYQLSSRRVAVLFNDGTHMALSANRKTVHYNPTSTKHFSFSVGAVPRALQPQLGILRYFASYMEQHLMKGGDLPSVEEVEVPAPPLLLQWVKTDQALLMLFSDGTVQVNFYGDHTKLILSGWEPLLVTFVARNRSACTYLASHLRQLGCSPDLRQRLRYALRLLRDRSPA

[2] = target: T1, cGMP-dependent protein kinase 1 (Homo sapiens) (UniProt Q13976); test: Inhibition of human PKG1b assessed as enzyme activity at 1 uM using LRRASLG as substrate preincubated for 20 mins followed by [gamma-33P]-ATP addition and measured after 120 mins by radiometric Hot-SpotSM Kinase assay relative to control
T1 sequence (whole entry): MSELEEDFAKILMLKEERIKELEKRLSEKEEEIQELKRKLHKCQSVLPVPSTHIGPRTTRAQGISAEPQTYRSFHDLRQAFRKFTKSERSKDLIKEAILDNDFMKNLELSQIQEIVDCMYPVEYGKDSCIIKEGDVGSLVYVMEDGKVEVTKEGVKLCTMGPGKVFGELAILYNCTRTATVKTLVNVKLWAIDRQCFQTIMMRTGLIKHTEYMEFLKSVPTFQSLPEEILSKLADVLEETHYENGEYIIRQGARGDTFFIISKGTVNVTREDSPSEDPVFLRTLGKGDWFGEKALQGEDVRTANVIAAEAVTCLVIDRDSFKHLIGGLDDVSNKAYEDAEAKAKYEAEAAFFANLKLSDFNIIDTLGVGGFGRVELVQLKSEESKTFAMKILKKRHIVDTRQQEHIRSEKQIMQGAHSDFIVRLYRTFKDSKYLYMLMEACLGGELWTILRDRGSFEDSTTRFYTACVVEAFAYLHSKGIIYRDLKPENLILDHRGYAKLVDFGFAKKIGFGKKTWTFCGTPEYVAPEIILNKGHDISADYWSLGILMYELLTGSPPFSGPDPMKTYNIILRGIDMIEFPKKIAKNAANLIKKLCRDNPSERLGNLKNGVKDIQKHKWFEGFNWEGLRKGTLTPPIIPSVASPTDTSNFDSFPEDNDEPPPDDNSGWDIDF

[3] = target: Phosphorylase b kinase gamma catalytic chain, skeletal muscle/heart isoform (Homo sapiens) (UniProt Q16816); test: Inhibition of human PHKg1 assessed as enzyme activity at 1 uM using KKLNRTLSFAEPG as substrate preincubated for 20 mins followed by [gamma-33P]-ATP addition and measured after 120 mins by radiometric Hot-SpotSM Kinase assay relative to control
Sequence of Phosphorylase b kinase gamma catalytic chain, skeletal muscle/heart isoform (Homo sapiens) (Q16816 whole entry, looked up, canonical isoform): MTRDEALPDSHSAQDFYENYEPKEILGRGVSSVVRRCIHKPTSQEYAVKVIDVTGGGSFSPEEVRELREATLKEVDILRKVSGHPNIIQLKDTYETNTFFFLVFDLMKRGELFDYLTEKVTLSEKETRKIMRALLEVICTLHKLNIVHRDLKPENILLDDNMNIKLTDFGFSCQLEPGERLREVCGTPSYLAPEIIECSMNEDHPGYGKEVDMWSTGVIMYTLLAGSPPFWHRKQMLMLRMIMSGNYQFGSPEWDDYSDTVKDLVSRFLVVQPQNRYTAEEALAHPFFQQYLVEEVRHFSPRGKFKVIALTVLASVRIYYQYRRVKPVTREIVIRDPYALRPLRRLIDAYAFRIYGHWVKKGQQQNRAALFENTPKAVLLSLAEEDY

[4] = target: Serine/threonine-protein kinase/endoribonuclease IRE2 (Homo sapiens) (UniProt Q76MJ5); test: Inhibition of human ERN2/IRE2 assessed as enzyme activity at 1 uM using myelin basic protein as substrate preincubated for 20 mins followed by [gamma-33P]-ATP addition and measured after 120 mins by radiometric Hot-SpotSM Kinase assay relative to control
Sequence of Serine/threonine-protein kinase/endoribonuclease IRE2 (Homo sapiens) (Q76MJ5 35-926 limits assumed): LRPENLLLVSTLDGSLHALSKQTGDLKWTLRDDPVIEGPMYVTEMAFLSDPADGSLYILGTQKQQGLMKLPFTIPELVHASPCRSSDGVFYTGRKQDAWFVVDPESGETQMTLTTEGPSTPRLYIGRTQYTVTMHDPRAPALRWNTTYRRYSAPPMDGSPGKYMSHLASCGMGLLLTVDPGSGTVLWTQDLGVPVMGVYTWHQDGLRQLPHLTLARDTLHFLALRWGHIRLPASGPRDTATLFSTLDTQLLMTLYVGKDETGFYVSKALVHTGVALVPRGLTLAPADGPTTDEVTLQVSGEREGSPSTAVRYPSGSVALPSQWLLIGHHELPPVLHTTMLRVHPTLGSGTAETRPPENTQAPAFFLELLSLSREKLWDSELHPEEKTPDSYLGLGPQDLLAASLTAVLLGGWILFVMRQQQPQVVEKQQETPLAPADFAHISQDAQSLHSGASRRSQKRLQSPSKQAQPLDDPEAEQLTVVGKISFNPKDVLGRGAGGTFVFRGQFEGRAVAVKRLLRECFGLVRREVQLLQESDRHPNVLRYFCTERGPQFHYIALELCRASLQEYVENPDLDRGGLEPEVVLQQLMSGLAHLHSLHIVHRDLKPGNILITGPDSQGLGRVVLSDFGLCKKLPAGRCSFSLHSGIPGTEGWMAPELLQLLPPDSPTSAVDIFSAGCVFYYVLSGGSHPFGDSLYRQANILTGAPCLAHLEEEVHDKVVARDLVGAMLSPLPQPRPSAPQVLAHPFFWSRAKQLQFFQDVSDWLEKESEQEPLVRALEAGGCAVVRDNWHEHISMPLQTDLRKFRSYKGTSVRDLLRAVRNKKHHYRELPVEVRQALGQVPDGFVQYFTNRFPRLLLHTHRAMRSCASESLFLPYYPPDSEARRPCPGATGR

[5] = target: CDK1/Cyclin A (Homo sapiens) (UniProt P06493+P20248); test: Inhibition of human CDK1/cyclin A assessed as enzyme activity at 1 uM using RB Protein as substrate preincubated for 20 mins followed by [gamma-33P]-ATP addition and measured after 120 mins by radiometric Hot-SpotSM Kinase assay relative to control; assay type: protein-complex assay
Sequence of CDK1/Cyclin A (Homo sapiens) (P06493 whole entry, looked up): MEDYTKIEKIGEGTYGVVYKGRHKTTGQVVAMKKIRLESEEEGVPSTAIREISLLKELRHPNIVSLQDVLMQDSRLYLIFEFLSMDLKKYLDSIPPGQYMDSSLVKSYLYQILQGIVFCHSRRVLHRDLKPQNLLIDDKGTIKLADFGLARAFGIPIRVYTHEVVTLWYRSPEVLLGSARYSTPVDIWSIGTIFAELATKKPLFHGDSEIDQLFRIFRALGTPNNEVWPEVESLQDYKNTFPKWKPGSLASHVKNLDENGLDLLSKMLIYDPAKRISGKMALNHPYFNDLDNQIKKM
Sequence of CDK1/Cyclin A (Homo sapiens) (P20248 whole entry, looked up): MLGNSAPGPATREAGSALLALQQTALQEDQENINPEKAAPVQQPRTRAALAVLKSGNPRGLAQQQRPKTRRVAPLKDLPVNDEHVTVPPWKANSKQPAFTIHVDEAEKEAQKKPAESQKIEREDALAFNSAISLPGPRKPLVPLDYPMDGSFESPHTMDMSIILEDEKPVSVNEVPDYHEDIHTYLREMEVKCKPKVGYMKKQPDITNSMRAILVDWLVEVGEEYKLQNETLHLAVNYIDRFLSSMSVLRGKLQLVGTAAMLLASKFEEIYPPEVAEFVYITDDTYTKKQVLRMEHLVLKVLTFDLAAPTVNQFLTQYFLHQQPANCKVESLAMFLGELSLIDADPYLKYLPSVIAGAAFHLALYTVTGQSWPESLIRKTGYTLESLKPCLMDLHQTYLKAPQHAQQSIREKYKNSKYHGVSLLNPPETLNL

[6] = target: T2, Serine/threonine-protein kinase ULK1 (Homo sapiens) (UniProt O75385); test: Inhibition of human ULK1 assessed as enzyme activity at 1 uM using myelin basic protein as substrate preincubated for 20 mins followed by [gamma-33P]-ATP addition and measured after 120 mins by radiometric Hot-SpotSM Kinase assay relative to control
T2 sequence (whole entry): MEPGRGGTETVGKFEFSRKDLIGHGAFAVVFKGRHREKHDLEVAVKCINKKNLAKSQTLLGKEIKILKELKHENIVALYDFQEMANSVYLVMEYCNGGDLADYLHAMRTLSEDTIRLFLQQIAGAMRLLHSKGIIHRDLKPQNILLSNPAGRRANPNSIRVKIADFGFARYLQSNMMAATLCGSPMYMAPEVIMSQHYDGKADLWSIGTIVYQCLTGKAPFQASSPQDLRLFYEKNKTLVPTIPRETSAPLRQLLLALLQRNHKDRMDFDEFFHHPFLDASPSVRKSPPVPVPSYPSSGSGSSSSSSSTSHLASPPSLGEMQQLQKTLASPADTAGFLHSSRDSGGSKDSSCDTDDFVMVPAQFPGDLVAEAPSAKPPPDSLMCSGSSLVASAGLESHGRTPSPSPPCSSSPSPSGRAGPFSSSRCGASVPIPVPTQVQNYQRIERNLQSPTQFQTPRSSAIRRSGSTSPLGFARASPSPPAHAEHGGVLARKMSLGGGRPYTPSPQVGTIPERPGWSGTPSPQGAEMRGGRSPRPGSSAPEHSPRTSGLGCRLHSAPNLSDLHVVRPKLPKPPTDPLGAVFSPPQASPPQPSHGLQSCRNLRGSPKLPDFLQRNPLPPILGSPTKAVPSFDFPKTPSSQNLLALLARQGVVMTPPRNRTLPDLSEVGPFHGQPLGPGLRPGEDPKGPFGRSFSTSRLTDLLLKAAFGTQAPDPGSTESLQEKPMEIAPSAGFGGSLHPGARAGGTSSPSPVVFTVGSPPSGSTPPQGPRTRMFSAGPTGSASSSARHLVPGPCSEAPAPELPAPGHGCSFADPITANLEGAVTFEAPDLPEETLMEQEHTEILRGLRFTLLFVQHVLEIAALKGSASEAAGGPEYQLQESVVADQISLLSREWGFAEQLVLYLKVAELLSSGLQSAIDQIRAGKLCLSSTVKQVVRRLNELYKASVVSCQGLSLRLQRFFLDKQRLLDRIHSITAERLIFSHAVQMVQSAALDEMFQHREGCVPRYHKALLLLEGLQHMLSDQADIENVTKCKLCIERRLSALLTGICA

[7] = target: Tyrosine-protein kinase receptor UFO (Homo sapiens) (UniProt P30530); test: Inhibition of human AXL assessed as enzyme activity at 1 uM using poly[Glu:Tyr] (4:1) as substrate preincubated for 20 mins followed by [gamma-33P]-ATP addition and measured after 120 mins by radiometric Hot-SpotSM Kinase assay relative to control
Sequence of Tyrosine-protein kinase receptor UFO (Homo sapiens) (P30530 whole entry, canonical isoform): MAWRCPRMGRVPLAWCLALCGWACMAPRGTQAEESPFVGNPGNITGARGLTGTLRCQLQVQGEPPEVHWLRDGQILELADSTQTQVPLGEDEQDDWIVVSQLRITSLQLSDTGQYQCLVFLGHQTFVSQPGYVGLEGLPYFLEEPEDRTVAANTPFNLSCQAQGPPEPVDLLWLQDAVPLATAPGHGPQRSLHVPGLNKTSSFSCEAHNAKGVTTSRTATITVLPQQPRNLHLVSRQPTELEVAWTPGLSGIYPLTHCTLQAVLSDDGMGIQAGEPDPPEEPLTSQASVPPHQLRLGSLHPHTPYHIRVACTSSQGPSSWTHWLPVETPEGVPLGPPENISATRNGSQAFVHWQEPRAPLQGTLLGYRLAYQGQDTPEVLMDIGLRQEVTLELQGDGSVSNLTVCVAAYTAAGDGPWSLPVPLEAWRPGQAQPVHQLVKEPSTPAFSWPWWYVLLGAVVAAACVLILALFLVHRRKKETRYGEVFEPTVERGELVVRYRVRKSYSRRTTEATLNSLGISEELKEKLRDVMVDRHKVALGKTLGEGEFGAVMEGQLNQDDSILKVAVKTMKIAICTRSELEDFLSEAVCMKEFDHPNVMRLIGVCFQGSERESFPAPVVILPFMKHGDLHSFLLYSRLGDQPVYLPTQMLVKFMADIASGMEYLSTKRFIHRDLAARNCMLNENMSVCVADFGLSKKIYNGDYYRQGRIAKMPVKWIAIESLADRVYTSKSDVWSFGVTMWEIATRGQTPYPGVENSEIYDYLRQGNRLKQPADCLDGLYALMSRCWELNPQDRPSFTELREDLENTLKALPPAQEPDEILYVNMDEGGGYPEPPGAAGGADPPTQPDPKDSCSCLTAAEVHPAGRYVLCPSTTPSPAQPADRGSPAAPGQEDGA

[8] = target: Casein kinase I isoform gamma-3 (Homo sapiens) (UniProt Q9Y6M4); test: Inhibition of human CK1g3 assessed as enzyme activity at 1 uM using KRRRAL[pS]VASLPGL as substrate preincubated for 20 mins followed by [gamma-33P]-ATP addition and measured after 120 mins by radiometric Hot-SpotSM Kinase assay relative to control
Sequence of Casein kinase I isoform gamma-3 (Homo sapiens) (Q9Y6M4 whole entry, looked up, canonical isoform): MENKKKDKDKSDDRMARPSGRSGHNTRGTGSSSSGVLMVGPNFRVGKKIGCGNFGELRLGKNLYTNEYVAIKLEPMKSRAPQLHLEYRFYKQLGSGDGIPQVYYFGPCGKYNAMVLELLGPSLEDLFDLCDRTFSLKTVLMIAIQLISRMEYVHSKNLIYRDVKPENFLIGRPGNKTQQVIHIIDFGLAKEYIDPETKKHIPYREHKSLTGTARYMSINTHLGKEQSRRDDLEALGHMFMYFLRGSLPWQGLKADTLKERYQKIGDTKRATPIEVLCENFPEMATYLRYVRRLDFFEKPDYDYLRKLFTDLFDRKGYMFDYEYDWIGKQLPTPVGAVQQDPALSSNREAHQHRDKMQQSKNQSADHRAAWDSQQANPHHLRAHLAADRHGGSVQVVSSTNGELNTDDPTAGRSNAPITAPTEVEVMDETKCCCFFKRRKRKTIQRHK

`CC[C@H](Nc1ncnc2[nH]cnc12)c1nc2cccc(F)c2c(=O)n1-c1ccccc1` gave an Activity [1] of 98.4%, an Activity [2] of 99.8% and an Activity [3] of 99%. It also gave an Activity [4] of 100%, an Activity [5] of 95.5% and an Activity [6] of 96.9%. It also gave an Activity [7] of 93.5% and an Activity [8] of 93.1%.
`CC(C)Oc1ccc(-c2nn([C@@H](C)c3oc4ccc(F)cc4c(=O)c3-c3cccc(F)c3)c3ncnc(N)c23)cc1F` [UMBRALISIB] gave an Activity [1] of 96.7%, an Activity [2] of 90.3% and an Activity [3] of 95.4%. The Activity [4] was 98.3%, the Activity [5] was 96.9% and the Activity [6] was 100%. It also gave an Activity [7] of 91.2% and an Activity [8] of 95.4%.
`C[C@H](Nc1ncnc2nc[nH]c12)c1cc2cccc(Cl)c2c(=O)n1-c1ccccc1` gave an Activity [1] of 95.1%, an Activity [2] of 95.9% and an Activity [3] of 98.4%. The Activity [4] was 96.5%, the Activity [5] was 95.7% and the Activity [6] was 111%. For the same compound, the Activity [7] was 93.9% and the Activity [8] was 92.9%.
